Test system: subjects with moderate-to-severe plaque psoriasis
Assay: Safety, adverse events, Example 2 through Week 56
Format: in vivo, human
Set-up: Participants experiencing 1 or more AEs: unit not given here
Source text: The LTE safety analysis was based on randomized participants in Example who entered the present long-term extension study and received at least one dose of study intervention (including a partial dose) during the study period.

[1] = Placebo → 100 mg QD, Week 16-56
[2] = Placebo → 100 mg QD, through Week 56
[3] = Week 16 through Week 56, dose group = column
[4] = combined group, long-term extension
[5] = number of subjects, through Week 56, 25 mg BID
[6] = number of subjects, through Week 56, 25 mg QD
[7] = number of subjects, through Week 56, 50 mg QD

CC(=O)NCCCC[C@@H]1NC(=O)[C@H](Cc2c[nH]c3c(C)cccc23)NC(=O)[C@H]([C@@H](C)O)NC(=O)[C@H](CC(N)=O)NC(=O)[C@@H](NC(C)=O)C(C)(C)SSC(C)(C)[C@@H](C(=O)N[C@@H](Cc2ccc(OCCN)cc2)C(=O)N[C@@H](Cc2ccc3ccccc3c2)C(=O)NC2(C(=O)N[C@@H](CCC(=O)O)C(=O)N[C@@H](CC(N)=O)C(=O)N[C@@H](Cc3cccnc3)C(=O)N(C)CC(N)=O)CCOCC2)NC1=O [IL-23 receptor antagonist peptide, Ac-[Pen]*-N-T-[W(7-Me)]-[Lys(Ac)]-[Pen]*-Phe[4-(2-aminoethoxy)]-[2-Nal]-[THP]-E-N-[3-Pal]-Sarc-NH2 (*[Pen]-[Pen]* formdisulfidebond)]
0: Subjects with serious adverse event: Ventricular dysfunction (Placebo → 100 mg QD, LTE Safety analysis set) | Subjects with 1 or more treatment-emergent adverse events leading to discontinuation of study agent [1] | Subjects with AE leading to discontinuation: Alanine aminotransferase increased [1] | Subjects with AE leading to discontinuation: Aspartate aminotransferase increased [1] | Subjects with AE leading to discontinuation: Asthenia [1] | Subjects with AE leading to discontinuation: Chills [1] | Subjects with AE leading to discontinuation: Ear and labyrinth disorders [1] | Subjects with AE leading to discontinuation: Gamma-glutamyltransferase increased [1] | Subjects with AE leading to discontinuation: Gastrointestinal disorders [1] | Subjects with AE leading to discontinuation: General disorders and administration site conditions [1] | Subjects with AE leading to discontinuation: Headache [1] | Subjects with AE leading to discontinuation: Insomnia [1] | Subjects with AE leading to discontinuation: Investigations [1] | Subjects with AE leading to discontinuation: Nervous system disorders [1] | Subjects with AE leading to discontinuation: Proctalgia [1] | Subjects with AE leading to discontinuation: Psoriasis [1] | Subjects with AE leading to discontinuation: Psychiatric disorders [1] | Subjects with AE leading to discontinuation: Skin and subcutaneous tissue disorders [1] | Subjects with AE leading to discontinuation: Vertigo [1] | Subjects with AE leading to discontinuation: Vomiting [1] | Subjects with treatment-emergent AE: Headache [1] | Subjects with treatment-emergent AE: Meniscus injury [1] | Subjects with treatment-emergent AE: Sinusitis [1] | Subjects with treatment-emergent AE: Vomiting [1] | Subjects with treatment-emergent serious AE: Cardiac disorders [1] | Subjects with treatment-emergent serious AE: Coronary artery disease [1] | Subjects with treatment-emergent serious AE: Diverticulitis [1] | Subjects with treatment-emergent serious AE: Foot deformity [1] | Subjects with treatment-emergent serious AE: General disorders and administration site conditions [1] | Subjects with treatment-emergent serious AE: Infections and infestations [1] | Subjects with treatment-emergent serious AE: Injury, poisoning and procedural complications [1] | Subjects with treatment-emergent serious AE: Intervertebral disc protrusion [1] | Subjects with treatment-emergent serious AE: Ligament injury [1] | Subjects with treatment-emergent serious AE: Musculoskeletal and connective tissue disorders [1] | Subjects with treatment-emergent serious AE: Neoplasms benign, malignant and unspecified (incl cysts and polyps) [1] | Subjects with treatment-emergent serious AE: Non-cardiac chest pain [1] | Subjects with treatment-emergent serious AE: Respiratory, thoracic and mediastinal disorders [1] | Subjects with treatment-emergent serious AE: Tonsillar hypertrophy [1] | Subjects with treatment-emergent serious AE: Uterine leiomyoma [1] | Subjects with treatment-emergent serious AE: Ventricular dysfunction [1] | Acrochordon: number of subjects [2] | Actinic keratosis: number of subjects [2] | Alopecia: number of subjects [2] | Asthenia: number of subjects [2] | Asthma: number of subjects [2] | Atrioventricular block first degree: number of subjects [2] | Basal cell carcinoma: number of subjects [2] | Blood and lymphatic system disorders: number of subjects [2] | Bronchitis chronic: number of subjects [2] | Bundle branch block right: number of subjects [2] | Cardiac disorders: number of subjects [2] | Chills: number of subjects [2] | Cholelithiasis: number of subjects [2] | Chronic obstructive pulmonary disease: number of subjects [2] | Coronary artery disease: number of subjects [2] | Cough: number of subjects [2] | Decreased appetite: number of subjects [2] | Depression: number of subjects [2] | Dermal cyst: number of subjects [2] | Dermatitis contact: number of subjects [2] | Diabetes mellitus: number of subjects [2] | Diffuse alopecia: number of subjects [2] | Ear and labyrinth disorders: number of subjects [2] | Endocrine disorders: number of subjects [2] | Eyelid skin dryness: number of subjects [2] | Fatigue: number of subjects [2] | General disorders and administration site conditions: number of subjects [2] | Goiter: number of subjects [2] | Hypercholesterolemia: number of subjects [2] | Hyperglycemia: number of subjects [2] | Hyperlipidemia: number of subjects [2] | Hypertriglyceridemia: number of subjects [2] | Hypoacusis: number of subjects [2] | Immune system disorders: number of subjects [2] | Influenza like illness: number of subjects [2] | Insomnia: number of subjects [2] | Intertrigo: number of subjects [2] | Ketonuria: number of subjects [2] | Leukocyturia: number of subjects [2] | Leukopenia: number of subjects [2] | Libido decreased: number of subjects [2] | Liver disorder: number of subjects [2] | Lymphopenia: number of subjects [2] | Menopause: number of subjects [2] | Neoplasms benign, malignant and unspecified (incl cysts and polyps): number of subjects [2] | Nephrolithiasis: number of subjects [2] | Neutropenia: number of subjects [2] | Night sweats: number of subjects [2] | Non-cardiac chest pain: number of subjects [2] | Oedema peripheral: number of subjects [2] | Procedural pain: number of subjects [2] | Productive cough: number of subjects [2] | Proteinuria: number of subjects [2] | Pruritus: number of subjects [2] | Psoriasis: number of subjects [2] | Psychiatric disorders: number of subjects [2] | Pyrexia: number of subjects [2] | Rash pruritic: number of subjects [2] | Renal mass: number of subjects [2] | Rhinorrhoea: number of subjects [2] | Seasonal allergy: number of subjects [2] | Skin laceration: number of subjects [2] | Skin papilloma: number of subjects [2] | Social circumstances: number of subjects [2] | Steatohepatitis: number of subjects [2] | Suicide attempt: number of subjects [2] | Sunburn: number of subjects [2] | Thrombocytopenia: number of subjects [2] | Thrombocytosis: number of subjects [2] | Tonsillar hypertrophy: number of subjects [2] | Tooth fracture: number of subjects [2] | Type 2 diabetes mellitus: number of subjects [2] | Urinary tract disorder: number of subjects [2] | Uterine leiomyoma: number of subjects [2] | Ventricular dysfunction: number of subjects [2] | Vertigo: number of subjects [2] | Vitamin D deficiency: number of subjects [2] | Subjects with 1 or more Adverse events: Arthralgia [5] | Subjects with 1 or more Adverse events: Cough [5] | Subjects with 1 or more Serious adverse events: COVID-19 [5] | Subjects with 1 or more Serious adverse events: Cerebrovascular accident [5] | Subjects with 1 or more Serious adverse events: Coronary artery disease [5] | Subjects with 1 or more Serious adverse events: Diverticulitis [5] | Subjects with 1 or more Serious adverse events: Foot deformity [5] | Subjects with 1 or more Serious adverse events: Infected cyst [5] | Subjects with 1 or more Serious adverse events: Intervertebral disc protrusion [5] | Subjects with 1 or more Serious adverse events: Non-cardiac chest pain [5] | Subjects with 1 or more Serious adverse events: Suicide attempt [5] | Subjects with 1 or more Serious adverse events: Uterine leiomyoma [5] | Subjects with 1 or more Adverse events: Influenza [6] | Subjects with 1 or more Serious adverse events [6] | Subjects with 1 or more Serious adverse events: COVID-19 [6] | Subjects with 1 or more Serious adverse events: Cerebrovascular accident [6] | Subjects with 1 or more Serious adverse events: Coronary artery disease [6] | Subjects with 1 or more Serious adverse events: Diverticulitis [6] | Subjects with 1 or more Serious adverse events: Foot deformity [6] | Subjects with 1 or more Serious adverse events: Infected cyst [6] | Subjects with 1 or more Serious adverse events: Intervertebral disc protrusion [6] | Subjects with 1 or more Serious adverse events: Ligament injury [6] | Subjects with 1 or more Serious adverse events: Non-cardiac chest pain [6] | Subjects with 1 or more Serious adverse events: Suicide attempt [6] | Subjects with 1 or more Serious adverse events: Tonsillar hypertrophy [6] | Subjects with 1 or more Serious adverse events: Uterine leiomyoma [6] | Subjects with 1 or more Serious adverse events: Ventricular dysfunction [6] | Subjects with 1 or more Serious adverse events: COVID-19 [7] | Subjects with 1 or more Serious adverse events: Cerebrovascular accident [7] | Subjects with 1 or more Serious adverse events: Diverticulitis [7] | Subjects with 1 or more Serious adverse events: Intervertebral disc protrusion [7] | Subjects with 1 or more Serious adverse events: Ligament injury [7] | Subjects with 1 or more Serious adverse events: Suicide attempt [7]
4: Number of participants who discontinued study intervention due to one or more AEs (long-term extension) | Subjects with 1 or more Adverse events: Bronchitis [7] | Subjects with 1 or more Adverse events: Diarrhea [7]
13: Subjects with 1 or more Adverse events: Nasopharyngitis [7]
(5.7%): Eye disorders: % of subjects [2] | Renal and urinary disorders: % of subjects [2] | Skin and subcutaneous tissue disorders: % of subjects [2]
(2.9%): Dermatitis acneiform: % of subjects [2] | Dysuria: % of subjects [2] | Haemochromatosis: % of subjects [2] | Hand dermatitis: % of subjects [2] | Hematuria: % of subjects [2] | Hepatobiliary disorders: % of subjects [2] | Hypertension: % of subjects [2] | Hypertransaminasemia: % of subjects [2] | Metabolism and nutrition disorders: % of subjects [2] | Ocular cyst: % of subjects [2] | Oropharyngeal pain: % of subjects [2] | Respiratory, thoracic and mediastinal disorders: % of subjects [2] | Retinal vein occlusion: % of subjects [2] | Vascular disorders: % of subjects [2]
41.9%: Infections and infestations AEs (all groups, long-term extension)
1: Dermatitis acneiform: number of subjects [2] | Dysuria: number of subjects [2] | Haemochromatosis: number of subjects [2] | Hand dermatitis: number of subjects [2] | Hematuria: number of subjects [2] | Hepatobiliary disorders: number of subjects [2] | Hypertension: number of subjects [2] | Hypertransaminasemia: number of subjects [2] | Metabolism and nutrition disorders: number of subjects [2] | Ocular cyst: number of subjects [2] | Oropharyngeal pain: number of subjects [2] | Respiratory, thoracic and mediastinal disorders: number of subjects [2] | Retinal vein occlusion: number of subjects [2] | Vascular disorders: number of subjects [2] | Subjects with 1 or more Adverse events: Alanine aminotransferase increased [5] | Subjects with 1 or more Adverse events: Aspartate aminotransferase increased [5] | Subjects with 1 or more Adverse events: Urinary tract infection [5] | Subjects with 1 or more Serious adverse events: Ligament injury [5] | Subjects with 1 or more Serious adverse events: Tonsillar hypertrophy [5] | Subjects with 1 or more Serious adverse events: Ventricular dysfunction [5] | Subjects with 1 or more Adverse events: Alanine aminotransferase increased [6] | Subjects with 1 or more Adverse events: Arthralgia [6] | Subjects with 1 or more Adverse events: Aspartate aminotransferase increased [6] | Subjects with 1 or more Adverse events: Cough [6] | Subjects with 1 or more Adverse events: Alanine aminotransferase increased [7] | Subjects with 1 or more Adverse events: Arthralgia [7] | Subjects with 1 or more Adverse events: Aspartate aminotransferase increased [7] | Subjects with 1 or more Adverse events: Headache [7] | Subjects with 1 or more Adverse events: Influenza [7] | Subjects with 1 or more Adverse events: Urinary tract infection [7] | Subjects with 1 or more Serious adverse events: Coronary artery disease [7] | Subjects with 1 or more Serious adverse events: Foot deformity [7] | Subjects with 1 or more Serious adverse events: Infected cyst [7] | Subjects with 1 or more Serious adverse events: Non-cardiac chest pain [7]
6: Subjects with 1 or more Adverse events: COVID-19 [6] | Subjects with 1 or more Adverse events: COVID-19 [7]
58.600: Participants experiencing 1 or more AEs [4]
4.0%: Participants with one or more serious adverse events (long-term extension)
9: Subjects with treatment-emergent AE: Nasopharyngitis [1] | Subjects with 1 or more Adverse events: COVID-19 [5]
3: Subjects with 1 or more Adverse events: Headache [5] | Subjects with 1 or more Adverse events: Influenza [5] | Subjects with 1 or more Adverse events: Upper respiratory tract infection [5] | Subjects with 1 or more Serious adverse events [5] | Subjects with 1 or more Adverse events: Nasopharyngitis [6] | Subjects with 1 or more treatment-emergent adverse events leading to discontinuation of study agent [6] | Subjects with 1 or more Adverse events: Upper respiratory tract infection [7] | Subjects with 1 or more Serious adverse events [7]
7: Subjects with 1 or more Adverse events: Upper respiratory tract infection [6]
(25.7%): Nasopharyngitis: % of subjects [3]
18.1%: Nasopharyngitis [4]
(10.5%): Investigations (system organ class): % of subjects [3]
well-tolerated: Tolerability (all treatment groups, long-term extension)
8: Subjects with 1 or more Adverse events: Nasopharyngitis [5]
5.3%: COVID-19 [4]
24: Subjects with 1 or more Adverse events [6]
32: Subjects with 1 or more Adverse events [5] | Subjects with 1 or more Adverse events [7]
2: Eye disorders: number of subjects [2] | Renal and urinary disorders: number of subjects [2] | Skin and subcutaneous tissue disorders: number of subjects [2] | Subjects with 1 or more Adverse events: Bronchitis [5] | Subjects with 1 or more Adverse events: Diarrhea [5] | Subjects with 1 or more treatment-emergent adverse events leading to discontinuation of study agent [5] | Subjects with 1 or more Adverse events: Bronchitis [6] | Subjects with 1 or more Adverse events: Diarrhea [6] | Subjects with 1 or more Adverse events: Headache [6] | Subjects with 1 or more Adverse events: Urinary tract infection [6] | Subjects with 1 or more Adverse events: Cough [7]
9.7%: Upper respiratory tract infection [4]
